Values of other authors in patent US9289440B2, “Intravenous formulation with water-soluble cocrystals of acetylsalicylic acid and theanine” (THEAPRIN PHARMACEUTICALS INC., priority 2009, dated 2016).
“Also recorded” adds a separate entry of the source.

Conditions: FDA Reports 2006-2008, single patient reports

SMILES: CC(=O)Oc1ccccc1C(=O)O [Aspegic, lysine acetylsalicylate]
- side effect after drug was administered: cardio-respiratory arrest and ventricular fibrillation and died; also recorded: angina pectoris and recovered
